Where two headings read alike, the source gives them in different places.
Experiments:
GLS1 = GLS1 (Homo sapiens (Human), UniProt O94925); assay: GLS Enzyme Potency Assay (Glutamate Oxidase/AmplexRed coupled assay); assay type: biochemical
Source text: (§1) The following assays were used to measure the effects of the compounds described herein: a) GLS Enzyme Potency Assay; b) GLS Cell Potency Assay; c) GLS Cell Proliferation Assay. During the description of the assays, generally: • i. The following abbreviations have been used: CO2=Carbon dioxide; DMEM=Dulbecco's Modified Eagle Medium; DMSO=Dimethyl sulphoxide; EDTA=Ethylenediaminetetraacetic acid; EGTA=Ethylene glycol tetraacetic acid; FCS=Foetal calf serum; h=Hour(s); NBS=Non-binding surface; SDS=Sodium dodecyl sulphate; TRIS=Tris(Hydroxymethyl)aminomethane. • ii. IC50 values were calculated using a smart fitting model in Genedata.
Assay a): GLS Enzyme Potency Assay
A Glutamate Oxidase/AmplexRed coupled assay was used to measure the ability of compounds to bind to and inhibit the activity of GLS1 in vitro. […] GLS1 was diluted to 2× working concentration and incubated at room temperature to allow the tetrameric/dimeric forms to reach steady state. Assay measurements were performed in buffer comprising 50 mM TRIS pH 7.8, 100 mM NaPO4, pH 7.8, 0.001% v/v Tween20. Purified recombinant GLS1 protein was diluted in assay buffer to 12 nM and pre-incubated at room temperature for 30 minutes. […] DMSO concentration was maintained at 2% by back filling with DMSO solution. 3 μL of diluted GLS1 protein (12 nM) was then dispensed into each well using a BioRaptr automated dispenser (Beckman-Coulter) and incubated for 15 minutes at room temperature. 3 μL of 100 mM glutamine diluted in assay buffer was then added and the reaction incubated at room temperature for 60 minutes. […] An artefact version of the assay where the 6His tagged GLS protein and glutamine were replaced with assay buffer was also used to rule out non specific effects on the assay components.

cellular GLS activity = cellular GLS activity (Homo sapiens (Human), UniProt O94925); assay: GLS Cell Potency Assay (PC3 coupled assay measuring cellular glutamate depletion); assay type: cell-based; details: PC3 cells, 6 h incubation, glutamate depletion; read-out: Assay b) GLS cell MOA Mean IC50
Source text: as §1
Assay b): GLS Cell Potency Assay
Compounds were assessed for their potential to inhibit cellular GLS activity by use of a PC3 coupled assay measuring cellular glutamate depletion. […] DMSO concentration was maintained at 0.3% by back filling with DMSO solution. PC3 cells were grown in phenol free DMEM, 10% dialyzed FCS, 2 mM glutamine and following dispersal by trypsinisation were plated at 5.6×10^3 cells per well in 40 μl of growth medium directly into the 384 well assay plates containing dispensed compound. After incubation for 6 h at 37° C., 5% CO2 growth media was aspirated and cells lysed in 15 μl of buffer containing 10 mM TRIS pH7.4, 100 mM NaCl, 1 mM EDTA, 1 mM EGTA, 1 mM NaF, 20 mM Na4P2O7, 2 mM Na3VO4, 1% Triton X-100, 10% glycerol, 0.1% SDS and 0.5% deoxycholate.

NCI-H1703 cells = assay: GLS Cell Proliferation Assay (NCI-H1703 cell proliferation); assay type: cell-based
Source text: as §1
Assay c): GLS Cell Proliferation Assay
The ability of compounds to inhibit cell growth was measured using a 384 well plate NCI-H1703 cell proliferation assay. NCI-H1703 cells were grown in phenol red free RPMI1640, 10% FCS and 2 mM glutamine and seeded at a density of 750 cells per well in 40 μl of growth medium into clear-bottom 384 well assay plates (Corning product code 3712) and incubated for 24 h at 37° C., 5% CO2. Test compounds were prepared by dilution in 100% DMSO to give the correct dose range for 12 point concentration response and an appropriate volume (5-120 nl) dispensed directly into the assay plates containing plated cells. DMSO concentration was maintained at 0.3% by back filling with DMSO solution. Plates were incubated for 5 days at 37° C., 5% CO2, Sytox Green and Saponin added to final concentration of 2 μM and 0.25% respectively and incubated for 6 h prior to analysis. Plates were read on an Acumen eX3 (TTP Labtech) using 488 nm excitation and FITC filter set (500-530 nm) for emission. IC50 values were calculated by curve fitting to max inhibition of day zero growth using GeneData software analysis.

[1] = 6His tagged GLS protein (amino acids 63-669), glutamine substrate; read-out: Assay a) enz IC50
[2] = Homo sapiens, NCI-H1703, 120 h, NCI-H1703 cells, 5 days; read-out: Assay c) Prolif Mean IC50
[3] = NCI-H1703 cells, 5 days; read-out: Assay c) Prolif Mean IC50

Chain of cellular GLS activity (O94925 73-669): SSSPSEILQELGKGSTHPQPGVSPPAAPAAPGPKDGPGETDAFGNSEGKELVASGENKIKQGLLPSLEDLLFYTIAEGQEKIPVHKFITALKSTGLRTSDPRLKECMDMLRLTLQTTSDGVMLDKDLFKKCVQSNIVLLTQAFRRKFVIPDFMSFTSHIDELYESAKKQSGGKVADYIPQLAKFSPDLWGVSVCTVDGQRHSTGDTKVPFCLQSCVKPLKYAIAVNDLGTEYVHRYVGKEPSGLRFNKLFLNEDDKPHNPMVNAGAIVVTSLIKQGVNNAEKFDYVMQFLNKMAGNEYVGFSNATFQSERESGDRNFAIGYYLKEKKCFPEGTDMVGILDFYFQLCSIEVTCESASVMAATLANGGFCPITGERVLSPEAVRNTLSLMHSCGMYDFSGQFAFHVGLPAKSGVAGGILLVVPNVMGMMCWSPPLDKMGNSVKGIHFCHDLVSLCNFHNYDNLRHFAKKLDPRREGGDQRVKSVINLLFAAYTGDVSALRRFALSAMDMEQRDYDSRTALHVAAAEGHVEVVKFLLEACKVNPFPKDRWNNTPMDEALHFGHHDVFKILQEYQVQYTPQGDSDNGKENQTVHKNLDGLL
Chain of GLS1 (O94925 63-669): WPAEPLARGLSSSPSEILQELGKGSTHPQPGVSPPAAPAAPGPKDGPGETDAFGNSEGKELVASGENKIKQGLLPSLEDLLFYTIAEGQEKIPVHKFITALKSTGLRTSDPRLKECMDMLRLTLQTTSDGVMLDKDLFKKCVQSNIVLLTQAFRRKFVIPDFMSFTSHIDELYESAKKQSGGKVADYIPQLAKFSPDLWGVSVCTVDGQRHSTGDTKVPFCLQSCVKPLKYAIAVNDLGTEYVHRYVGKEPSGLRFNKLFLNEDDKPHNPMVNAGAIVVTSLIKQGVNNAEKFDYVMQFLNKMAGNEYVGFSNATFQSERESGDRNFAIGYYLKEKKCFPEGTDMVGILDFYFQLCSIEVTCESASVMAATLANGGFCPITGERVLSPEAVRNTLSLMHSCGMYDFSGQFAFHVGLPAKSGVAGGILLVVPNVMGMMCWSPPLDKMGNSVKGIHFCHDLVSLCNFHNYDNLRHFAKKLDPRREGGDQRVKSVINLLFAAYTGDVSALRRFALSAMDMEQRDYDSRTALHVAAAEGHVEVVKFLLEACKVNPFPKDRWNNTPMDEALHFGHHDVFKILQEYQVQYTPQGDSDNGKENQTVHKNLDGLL

| SMILES | IC50 (GLS1; [1]) [µM] | IC50 (cellular GLS activity) [µM] | IC50 (NCI-H1703 cells; [2]) [µM] | IC50 (NCI-H1703 cells; [3]) [µM] | IC50 (GLS1; read-out: Assay a) enz IC50) [µM] |
| --- | --- | --- | --- | --- | --- |
| CCOC(C(=O)Nc1nnc(N[C@@H]2CCN(c3ccc(C)nn3)C2)s1)c1ccc(F)cc1 (single isomer, unassigned) [Example 28] | 0.096 | 0.00357 |  | 0.0732 |  |
| COc1ccc(C(OC)C(=O)Nc2nnc(N[C@@H]3CCN(c4ccc(F)nn4)C3)s2)cc1 (single isomer, unassigned) [Example 21] | 0.223 | 0.0537 |  | 0.93 |  |
| COC(C(=O)Nc1nnc(N[C@@H]2CCN(c3ccc(F)nn3)C2)s1)c1cccc(OC(F)(F)F)c1 (single isomer, unassigned) [Example 18] | 0.0653 | 0.00491 |  | 0.0168 |  |
| CO[C@H](C(=O)Nc1nnc(N[C@@H]2CCN(c3cc(C)cnn3)C2)s1)c1ccccc1 [Example 13, (2S)-2-Methoxy-N-[5-[[(3R)-1-(5-methylpyridazin-3-yl)pyrrolidin-3-yl]amino]-1,3,4-thiadiazol-2-yl]-2-phenyl-acetamide] | 0.0592 | 0.000658 | 0.00848 |  |  |
| COC(C(=O)Nc1nnc(N[C@@H]2CCN(c3ccc(F)nn3)C2)s1)c1ccc(F)cc1 (single isomer, unassigned) [Example 20] | 0.323 | 0.0795 |  | 1.27 |  |
| CCOC(C(=O)Nc1nnc(N[C@@H]2CCN(c3ccc(C)nn3)C2)s1)c1ccc(OC)cc1 (single isomer, unassigned) [Example 15] | 0.277 | 0.0348 |  | 0.567 |  |
| CCOC(C(=O)Nc1nnc(N[C@@H]2CCN(c3ccc(F)nn3)C2)s1)c1ccc(F)cc1 (single isomer, unassigned) [Example 26] | 0.0948 | 0.00212 |  | 0.0219 |  |
| CO[C@H](C(=O)Nc1nnc(N[C@@H]2CCN(c3ccc(C)nn3)C2)s1)c1cccc(OC(F)(F)F)c1 (single isomer, unassigned) [Example 7(a)] | 0.0952 | 0.000556 |  | 0.00308 |  |

Further lines, results first:

| IC50 (GLS1; [1]) [µM] | IC50 (cellular GLS activity) [µM] | IC50 (NCI-H1703 cells; [2]) [µM] | IC50 (NCI-H1703 cells; [3]) [µM] | IC50 (GLS1; read-out: Assay a) enz IC50) [µM] | SMILES |
| --- | --- | --- | --- | --- | --- |
| 0.0443 | 0.00104 | 0.0227 |  |  | CO[C@H](C(=O)Nc1nnc(N[C@@H]2CCN(c3ccc(C)nn3)C2)s1)c1ccccc1 [Example 14, (2S)-2-methoxy-N-[5-[[(3R)-1-(6-methylpyridazin-3-yl)pyrrolidin-3-yl]amino]-1,3,4-thiadiazol-2-yl]-2-phenyl-acetamide] |
| 0.0713 | 0.00101 |  | 0.0116 |  | COc1cc(C(OC)C(=O)Nc2nnc(N[C@@H]3CCN(c4ccc(F)nn4)C3)s2)ccc1F (single isomer, unassigned) [Example 24] |
|  | 0.0431 |  | 0.389 | 0.29 | CCO[C@H](C(=O)Nc1nnc(N[C@@H]2CCN(c3ccc(C)nn3)C2)s1)c1cccc(OC)c1 (single isomer, unassigned) [4(b)] |
| 2.38 | 0.0722 |  | 1.22 |  | CCOC(C(=O)Nc1nnc(N[C@@H]2CCN(c3ccc(C)nn3)C2)s1)c1ccc(F)cc1 (single isomer, unassigned) [Example 27] |
| 0.0189 | 0.00245 |  | 0.0369 |  | COc1ccc(C(OC)C(=O)Nc2nnc(N[C@@H]3CCN(c4ccc(F)nn4)C3)s2)cc1 (single isomer, unassigned) [Example 22] |

— patent US9938265B2, “1,3,4-thiadiazole compounds and their use in treating cancer” (AstraZeneca AB, priority 2015, dated 2018)
